# Experimental data reported in USRE39591E1, “6-O-substituted ketolides having antibacterial activity” (Abbott Laboratories, priority 1996, dated 2007).
# Tested on: up to 32 different microorganisms
# Experiment: in vitro antibacterial activity (MIC), agar dilution on Brain Heart Infusion (BHI) agar with Steers replicator
# Assay type: cell-based
# Conditions: unit assumed
# How it was run: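 MIC read visually: lowest drug level with no growth, slight haze or sparsely isolated colonies on the inoculum spot relative to drug-free control. Serial aqueous compound dilutions in BHI agar, 1:100 inoculum (1:10 slow strains), 20 to 24 hours at 35°-37° C.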
# [1] = Candida albicans CCH 442 (code TT)
# [2] = Enterococcus faecism ATCC 8043 (code II)
# [3] = Escherichia coli DC-2 (code SS)
# [4] = Escherichia coli JUHL (code QQ)
# [5] = Haemophilis influenzae DILL AMP R (code WW)
# [6] = Micrococcus luteus ATCC 4698 (code PP)
# [7] = Micrococcus luteus ATCC 9341 (code OO)
# [8] = Mycobacterium smegmatis ATCC 114 (code UU)
# [9] = Nocardia Asteroides ATCC9970 (code VV)
# [10] = Staphylococcus aureus 1775 (code GG)
# [11] = Staphylococcus aureus A5177 (code BB)
# [12] = Staphylococcus aureus A-5278 (code CC)
# [13] = Staphylococcus aureus ATCC 6538P (code AA)
# [14] = Staphylococcus aureus CMX 553 (code FF)
# [15] = Staphylococcus aureus CMX 642A (code DD)
# [16] = Staphylococcus aureus NCTC10649M (code EE)
# [17] = Staphylococcus epidermidis 3519 (code HH)
# [18] = Streptococcus Pneumonia 5649 (code ZZA)
# [19] = Streptococcus Pneumonia 5979 (code ZZ)
# [20] = Streptococcus Pneumonia ATCC6303 (code XX)
# [21] = Streptococcus Pneumonia GYR 1171 (code YY)
# [22] = Streptococcus agalactiae CMX 508 (code KK)
# [23] = Streptococcus bovis A-5169 (code JJ)
# [24] = Streptococcus pyogenes 930 (code MM)
# [25] = Streptococcus pyogenes EES61 (code LL)
# [26] = Streptococcus pyogenes PIU 2548 (code NN)
smiles,measurement,setting,value
"CCC1OC(=O)C(C)C(=O)C(C)C(OC2OC(C)CC(N(C)C)C2O)C(C)(OCC=Cc2ccc(-n3cccc3)cc2)CC(C)C(=O)C(C)C2NC(=O)OC12C (centres unmarked) [Example 282, Compound of Formula (IX): L is CO, T is NH2, R is —CH2CH═CH-(4-pyrrolylphenyl)]",MIC,organism code AA,0.2 µg/mL
same,MIC,organism code BB,0.1 µg/mL
same,MIC,organism code CC,100 µg/mL
same,MIC,organism code DD,0.2 µg/mL
same,MIC,organism code EE,0.2 µg/mL
same,MIC,organism code FF,0.1 µg/mL
same,MIC,organism code GG,100 µg/mL
same,MIC,organism code HH,0.2 µg/mL
same,MIC,organism code II,0.05 µg/mL
same,MIC,organism code JJ,0.01 µg/mL
same,MIC,organism code KK,≤ 0.005 µg/mL
same,MIC,organism code LL,≤ 0.005 µg/mL
same,MIC,organism code MM,25 µg/mL
same,MIC,organism code NN,0.1 µg/mL
same,MIC,organism code OO,0.05 µg/mL
same,MIC,organism code PP,0.2 µg/mL
same,MIC,organism code QQ,> 100 µg/mL
same,MIC,organism code RR,0.78 µg/mL
same,MIC,organism code SS,> 100 µg/mL
same,MIC,organism code TT,> 100 µg/mL
same,MIC,organism code UU,1.56 µg/mL
same,MIC,organism code VV,0.2 µg/mL
same,MIC,organism code WW,8 µg/mL
same,MIC,organism code XX,0.03 µg/mL
same,MIC,organism code YY,0.03 µg/mL
same,MIC,organism code ZZ,36 µg/mL
same,MIC,organism code ZZA,0.25 µg/mL
"CC[C@H]1OC(=O)[C@H](C)C(=O)[C@H](C)[C@@H](O[C@@H]2O[C@H](C)C[C@H](N(C)C)[C@H]2O)[C@@](C)(OCCCc2ccccc2)C[C@@H](C)C(=O)[C@H](C)[C@@H](O)[C@]1(C)O [Example 15, Compound of Formula (VIII): X is O, R is —CH2CH2CH2-Phenyl]",MIC,[1],> 100 µg/mL
same,MIC,[2],1.56 µg/mL
same,MIC,[3],> 100 µg/mL
same,MIC,[4],> 100 µg/mL
same,MIC,Escherichia coli SS (code RR),6.2 µg/mL
same,MIC,[5],> 64 µg/mL
same,MIC,[6],3.1 µg/mL
same,MIC,[7],0.78 µg/mL
same,MIC,[8],6.2 µg/mL
same,MIC,[9],1.56 µg/mL
same,MIC,[10],> 100 µg/mL
same,MIC,[11],6.2 µg/mL
same,MIC,[12],> 100 µg/mL
same,MIC,[13],6.2 µg/mL
same,MIC,[14],6.2 µg/mL
same,MIC,[15],6.2 µg/mL
same,MIC,[16],6.2 µg/mL
same,MIC,[17],6.2 µg/mL
same,MIC,[18],1 µg/mL
same,MIC,[19],32 µg/mL
same,MIC,[20],1 µg/mL
same,MIC,[21],1 µg/mL
same,MIC,[22],0.2 µg/mL
same,MIC,[23],0.2 µg/mL
same,MIC,[24],100 µg/mL
same,MIC,[25],0.39 µg/mL
same,MIC,[26],3.1 µg/mL
"CC[C@H]1OC(=O)[C@H](C)C(=O)[C@H](C)[C@@H](O[C@@H]2O[C@H](C)C[C@H](N(C)C)[C@H]2O)[C@@](C)(OCC=Cc2ccccc2)C[C@@H](C)C(=O)[C@H](C)[C@H]2OC(=O)O[C@@]21C [Example 72, Compound of Formula (IX): L is CO, T is O, R is —CH2CH═CH-Phenyl]",MIC,[1],> 100 µg/mL
same,MIC,[2],0.05 µg/mL
same,MIC,[3],> 100 µg/mL
same,MIC,Escherichia coli SS (code RR),0.78 µg/mL
same,MIC,[5],8 µg/mL
same,MIC,[6],0.1 µg/mL
same,MIC,[7],0.01 µg/mL
same,MIC,[8],0.78 µg/mL
same,MIC,[9],0.1 µg/mL
same,MIC,[10],100 µg/mL
same,MIC,[11],0.1 µg/mL
same,MIC,[12],> 100 µg/mL
same,MIC,[13],0.1 µg/mL
same,MIC,[14],0.2 µg/mL
same,MIC,[15],0.1 µg/mL
same,MIC,[16],0.1 µg/mL
same,MIC,[17],0.1 µg/mL
same,MIC,[18],0.5 µg/mL
same,MIC,[19],64 µg/mL
same,MIC,[20],0.06 µg/mL
same,MIC,[21],0.06 µg/mL
same,MIC,[22],0.01 µg/mL
same,MIC,[23],0.01 µg/mL
same,MIC,[24],50 µg/mL
same,MIC,[25],< 0.005 µg/mL
same,MIC,[26],0.2 µg/mL
"CC[C@H]1OC(=O)[C@H](C)C(=O)[C@H](C)[C@@H](O[C@@H]2O[C@H](C)C[C@H](N(C)C)[C@H]2O)[C@@](C)(OCC#Cc2ccccc2)C[C@@H](C)C(=O)[C@H](C)[C@H]2NC(=O)O[C@@]21C [Example 249, Compound of Formula (IX): L is CO, T is NH, R is —CH2—C≡C-phenyl]",MIC,organism code AA,0.1 µg/mL
same,MIC,organism code BB,0.1 µg/mL
same,MIC,organism code CC,> 100 µg/mL
same,MIC,organism code DD,0.2 µg/mL
same,MIC,organism code EE,0.2 µg/mL
same,MIC,organism code FF,0.1 µg/mL
same,MIC,organism code GG,> 100 µg/mL
same,MIC,organism code HH,0.1 µg/mL
same,MIC,organism code II,0.05 µg/mL
same,MIC,organism code JJ,0.01 µg/mL
same,MIC,organism code KK,0.02 µg/mL
same,MIC,organism code LL,0.02 µg/mL
same,MIC,organism code MM,100 µg/mL
same,MIC,organism code NN,0.1 µg/mL
same,MIC,organism code OO,0.01 µg/mL
same,MIC,organism code PP,0.1 µg/mL
same,MIC,organism code QQ,100 µg/mL
same,MIC,organism code RR,0.39 µg/mL
same,MIC,organism code SS,> 100 µg/mL
same,MIC,organism code TT,> 100 µg/mL
same,MIC,organism code UU,0.39 µg/mL
same,MIC,organism code VV,0.1 µg/mL
same,MIC,organism code WW,4 µg/mL
same,MIC,organism code XX,0.03 µg/mL
same,MIC,organism code YY,0.03 µg/mL
same,MIC,organism code ZZ,> 128 µg/mL
same,MIC,organism code ZZA,0.25 µg/mL
"CC[C@H]1OC(=O)[C@H](C)C(=O)[C@H](C)[C@@H](O[C@@H]2O[C@H](C)C[C@H](N(C)C)[C@H]2O)[C@@](C)(OCC=NOCc2ccccc2)C[C@@H](C)C(=O)[C@H](C)[C@H]2NC(=O)O[C@@]21C [Example 229, Compound of Formula (IX): L is CO, T is NH, R is —CH2CH═NOCH2(phenyl)]",MIC,organism code AA,0.2 µg/mL
same,MIC,organism code BB,0.2 µg/mL
same,MIC,organism code CC,> 100 µg/mL
same,MIC,organism code DD,0.2 µg/mL
same,MIC,organism code EE,0.2 µg/mL
same,MIC,organism code FF,0.2 µg/mL
same,MIC,organism code GG,> 100 µg/mL
same,MIC,organism code HH,0.2 µg/mL
same,MIC,organism code II,0.05 µg/mL
same,MIC,organism code JJ,≤ 0.005 µg/mL
same,MIC,organism code KK,0.02 µg/mL
same,MIC,organism code LL,0.01 µg/mL
same,MIC,organism code MM,50 µg/mL
same,MIC,organism code NN,0.2 µg/mL
same,MIC,organism code OO,0.02 µg/mL
same,MIC,organism code PP,0.05 µg/mL
same,MIC,organism code QQ,> 100 µg/mL
same,MIC,organism code RR,0.39 µg/mL
same,MIC,organism code SS,> 100 µg/mL
same,MIC,organism code TT,> 100 µg/mL
same,MIC,organism code UU,1.56 µg/mL
same,MIC,organism code VV,0.2 µg/mL
same,MIC,organism code WW,2 µg/mL
same,MIC,organism code XX,≤ 0.004 µg/mL
same,MIC,organism code YY,≤ 0.004 µg/mL
same,MIC,organism code ZZ,> 128 µg/mL
same,MIC,organism code ZZA,0.125 µg/mL
"CC[C@H]1OC(=O)[C@H](C)C(=O)[C@H](C)[C@@H](O[C@@H]2O[C@H](C)C[C@H](N(C)C)[C@H]2O)[C@@](C)(OCc2ccc3ccccc3c2)C[C@@H](C)C(=O)[C@H](C)[C@H]2NC(=O)O[C@@]21C [Example 176, Compound of Formula (IX): L is CO, T is NH, R is —CH2-(2-naphthyl)]",MIC,[1],> 100 µg/mL
same,MIC,[2],0.2 µg/mL
same,MIC,[3],> 100 µg/mL
same,MIC,[4],> 100 µg/mL
same,MIC,Escherichia coli SS (code RR),3.1 µg/mL
same,MIC,[5],64 µg/mL
same,MIC,[6],0.2 µg/mL
same,MIC,[7],0.05 µg/mL
same,MIC,[8],0.78 µg/mL
same,MIC,[9],1.56 µg/mL
same,MIC,[10],100 µg/mL
same,MIC,[11],0.78 µg/mL
same,MIC,[12],> 100 µg/mL
same,MIC,[13],1.56 µg/mL
same,MIC,[14],0.78 µg/mL
same,MIC,[15],1.56 µg/mL
same,MIC,[16],0.78 µg/mL
same,MIC,[17],0.78 µg/mL
same,MIC,[18],0.25 µg/mL
same,MIC,[19],64 µg/mL
same,MIC,[20],0.25 µg/mL
same,MIC,[21],0.25 µg/mL
same,MIC,[22],0.05 µg/mL
same,MIC,[23],0.05 µg/mL
same,MIC,[24],50 µg/mL
same,MIC,[25],0.05 µg/mL
same,MIC,[26],0.2 µg/mL
